Common to all, as to assay: NCI anticancer screen, dose series, 48 h
In assay [1] the test system is 786-0.
For assay [2], the system named is BT-549.
Assay [3] has as its system CCRF-CEM.
In assay [4] the test system is COLO 205.
Assay [5] concerns HCT-116.
In assay [6] the test system is HCT-15.
In assay [7] the test system is HOP-92.
Assay [8] concerns IGROV-1.
Assay [9] has as its system KM12.
The subject of assay [10] is MDA-MB-231.
In assay [11] the test system is MDA-MB-435.
Assay [12] deals with NCI-H522.
Assay [13] has as its system NCI/ADR-RES.
In assay [14] the test system is OVCAR-4.
Assay [15] relates to RXF 393.
The test system of assay [16] is SNB-75.
The subject of assay [17] is SW-620.
In assay [18] the test system is T47D.
The test system of assay [19] is U-251.
For assay [20], the system named is UO-31.

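96-well plates; 48 h exposure; 5 concentrations. Endpoints by linear interpolation between flanking doses. Not reached: highest tested concentration assigned. At the GI50, growth is halved.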 Active and inactive are the calls of the source. No stated cut-off is given here; in the data, active = GI50 up to about 1.1 µM and inactive = higher.

On to `O=[N+]([O-])c1cc2ccc(N(CCO)CCO)nc2nc1N(CCO)CCO`, for which the GI50 in [1] was > 100 µM (inactive); in assay [2], > 100 µM (inactive); in assay [3], > 100 µM (inactive); in assay [4], > 100 µM (inactive); in assay [5], > 100 µM (inactive); in assay [6], above 100 µM. Also, the GI50 in assay [7], in assay [8], in assay [9], in assay [10], in [11] and in assay [12] was > 100 µM (inactive) each time. Further, the GI50 in assay [13], in [14], in assay [15], in assay [16], in assay [17] and in [18] was > 100 µM (inactive) each time. The GI50 in [19] and in assay [20] was > 100 µM (inactive) each time.

For the compound `CC(=O)OCC1OC(c2c(OC(C)=O)cc(C)c3c(=O)cc(/C(C(C)=O)=C(\C)O)oc23)C(OC(C)=O)C(OC(C)=O)C1OC(C)=O` (stereo not given), the GI50 was > 100 µM (inactive) in assay [1]; > 100 µM (inactive) in assay [2]; > 100 µM (inactive) in assay [3]; > 100 µM (inactive) in assay [4]; > 100 µM (inactive) in [5]; above 100 µM in [6]. Besides, the GI50 in assay [7], in [8], in assay [9], in assay [10], in [11] and in assay [12] was > 100 µM (inactive) throughout. Also, the GI50 in [13] is > 100 µM (inactive); in assay [14], > 100 µM (inactive); in [15], > 100 µM (inactive); in assay [16], 49.5 µM (inactive); in [17], > 100 µM (inactive); in assay [18] it was > 100 µM (inactive). Besides, the GI50 in assay [19] and in [20] was > 100 µM (inactive) throughout.

Take `COC(=O)C1=C(C(=O)OC)C2OC1c1cc3ccccc3cc12`: the GI50 is 1.76 µM (inactive) in assay [1]; 5.47 µM (inactive) in assay [2]; 1.69 µM (inactive) in [3]; 1.82 µM (inactive) in assay [4]; 1.74 µM (inactive) in assay [5]; 2.18 µM in assay [6]. The GI50 was 1.69 µM (inactive) in assay [7]; 5.01 µM (inactive) in assay [8]; 23.7 µM (inactive) in assay [9]; 17.7 µM (inactive) in [10]; 7.38 µM (inactive) in assay [11]; 1.3 µM (inactive) in [12]. Further, the GI50 in assay [13] is 10.8 µM (inactive); in assay [14], 1.78 µM (inactive); in [15], 1.77 µM (inactive); in assay [16], 23.3 µM (inactive); in [17] it was 1.96 µM (inactive); in assay [18] it was 2.61 µM (inactive). The GI50 was 17.3 µM (inactive) in assay [19] and 1.54 µM (inactive) in [20].

Regarding `CC(C)(C)OC(=O)N1CCC[C@H]1CSC[C@@H]1CCCN1C(=O)OC(C)(C)C`, the GI50 in [1] is 38.8 µM (inactive); in [2], 23.8 µM (inactive); in assay [3] it was 24.2 µM (inactive); in assay [4], 16.8 µM (inactive); in assay [5], 25.6 µM (inactive); in [6] it was 27.9 µM. Further, the GI50 in assay [7] was 8.43 µM (inactive); in [8], 43.4 µM (inactive); in assay [9], 20.9 µM (inactive); in [10], 31.5 µM (inactive); in assay [11], 20.7 µM (inactive); in [12], 24 µM (inactive). Besides, the GI50 was 18.7 µM (inactive) in assay [13]; 28.7 µM (inactive) in assay [14]; 24.8 µM (inactive) in assay [15]; 23.9 µM (inactive) in [16]; 30.3 µM (inactive) in [17]; 20.6 µM (inactive) in assay [18]. The GI50 in [19] was 29.7 µM (inactive); in assay [20], 26.2 µM (inactive).

As for `COc1ccc(C(=O)C#Cc2cn(C3CC(O)C(CO)O3)c(=O)[nH]c2=O)cc1` (stereo not given), the GI50 in assay [1] is 49.7 µM (inactive); in assay [2], 20.2 µM (inactive); in assay [3] it was > 10 µM (inactive); in assay [4], 33.3 µM (inactive); in assay [5], 39.7 µM (inactive); in [6], above 100 µM. Moreover, the GI50 was 21.7 µM (inactive) in assay [7]; > 100 µM (inactive) in [8]; > 100 µM (inactive) in assay [9]; > 100 µM (inactive) in assay [10]; 56.8 µM (inactive) in assay [11]; 11.9 µM (inactive) in assay [12]. The GI50 in assay [13] is 42.6 µM (inactive); in assay [14], 48.6 µM (inactive); in [15], 52.2 µM (inactive); in assay [16], > 100 µM (inactive); in assay [17], 43.1 µM (inactive); in assay [18], 19.2 µM (inactive). The GI50 in assay [19] and in assay [20] was > 100 µM (inactive) throughout.

Take `C[C@H](CCC1=NCCN1)[C@H]1CC[C@H]2[C@@H]3[C@H](O)C[C@@H]4C[C@H](O)CC[C@]4(C)[C@H]3CC[C@]12C`: the GI50 in [1] was 14.6 µM (inactive); in [2] it was 12.3 µM (inactive); in assay [3] it was 12.7 µM (inactive); in [4], 8.57 µM (inactive); in assay [5] it was 13.6 µM (inactive); in [6] it was 16.5 µM. Further, the GI50 in assay [7] was 8.89 µM (inactive); in assay [8] it was 11.7 µM (inactive); in assay [9] it was 14.6 µM (inactive); in [10], 16.7 µM (inactive); in assay [11], 13.7 µM (inactive); in [12], 14.7 µM (inactive). In addition, the GI50 in [13] is 28.8 µM (inactive); in assay [14], 14.9 µM (inactive); in assay [15], 15.8 µM (inactive); in assay [16] it was 10.6 µM (inactive); in assay [17], 15.6 µM (inactive); in assay [18], 14.8 µM (inactive). The results for the GI50 in [19] and in assay [20] were 12.8 µM (inactive) and 14.6 µM (inactive), respectively.

Take `CC(C)=CCC[C@@H](C)c1c2nc3ccccc3sc-2c(C)c(=O)c1O`: the GI50 in assay [1] was 4.9 µM (inactive); in assay [2], 31 µM (inactive); in assay [3] it was 2.67 µM (inactive); in assay [4], 18.8 µM (inactive); in assay [5] it was 3.37 µM (inactive); in assay [6] it was 2.32 µM. Moreover, the GI50 in [7] was 18.9 µM (inactive); in assay [8], 3.44 µM (inactive); in assay [9], 4.6 µM (inactive); in [10], 15.1 µM (inactive); in assay [11], 10.6 µM (inactive); in assay [12] it was 1.82 µM (inactive). For the same compound, the GI50 was 2.05 µM (inactive) in assay [13]; 6.43 µM (inactive) in assay [14]; 9.35 µM (inactive) in [15]; 5.53 µM (inactive) in [16]; 4.86 µM (inactive) in [17]; 3.45 µM (inactive) in [18]. The GI50 in assay [19] was 6.38 µM (inactive); in assay [20] it was 3.55 µM (inactive).

The values are drawn from ChEMBL document CHEMBL1201862, “PubChem BioAssay data set” (2004).
